Results as given in patent US12503475B2 (Centessa Pharmaceuticals (UK) Limited, priority 2020, dated 2025).

Target: T1, human orexin type 2 receptor (hOX2R) (Homo sapiens, UniProt O43614)
T1 construct: expressed in transfected cells
T1 sequence (O43614 1-444): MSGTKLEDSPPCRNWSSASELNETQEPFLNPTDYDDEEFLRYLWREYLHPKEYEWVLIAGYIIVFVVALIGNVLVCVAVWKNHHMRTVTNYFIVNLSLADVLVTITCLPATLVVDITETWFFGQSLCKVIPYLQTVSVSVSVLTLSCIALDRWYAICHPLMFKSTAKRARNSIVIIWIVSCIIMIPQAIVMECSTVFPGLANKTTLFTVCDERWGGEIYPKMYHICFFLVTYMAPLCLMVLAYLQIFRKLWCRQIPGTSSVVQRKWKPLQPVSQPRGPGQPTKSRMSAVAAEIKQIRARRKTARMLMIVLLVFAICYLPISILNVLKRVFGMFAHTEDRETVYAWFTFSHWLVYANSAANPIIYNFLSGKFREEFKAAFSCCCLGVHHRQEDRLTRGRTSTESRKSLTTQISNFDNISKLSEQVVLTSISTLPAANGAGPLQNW
Test: Measurement of orexin type 2 receptor agonist activity (FLIPR calcium fluorescence)
Format: cell-based
Conditions: CHO cells expressing hOX2R, FLIPR calcium fluorescence; for EC50: read-out: hOx2 pEC50 (converted); for Emax: CHO, read-out: hOx2 Emax (%)
In short: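 Agonism was read as fluorescence in cells stably expressing human OX2R. E. is the response at 10 μM relative to orexin A as full agonist (100%).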

CS(=O)(=O)N[C@@H]1[C@H](Cc2cc(F)cc(-c3ccccc3)c2F)N(C(=O)[C@H](O)C2CC2)CC12CC2 [Compound 352, N-((6S,7S)-5-((R)-2-cyclopropyl-2-hydroxyacetyl)-6-((2,5-difluoro-[1,1′-biphenyl]-3-yl)methyl)-5-azaspiro[2.4]heptan-7-yl)methanesulfonamide]
EC50: 1 to 10 nM
Emax: 90 to 100%

CC(C)C(=O)N1CC2(CC2)[C@H](NS(C)(=O)=O)[C@@H]1Cc1cccc(-c2ccccc2)c1 [Compound 17, N-((6S,7S)-6-([1,1′-biphenyl]-3-ylmethyl)-5-isobutyryl-5-azaspiro[2.4]heptan-7-yl)methanesulfonamide]
EC50: 10 to 100 nM
Emax: 90 to 100%

CO[C@@H](C)CNC(=O)N1CC2(CC2)[C@H](NS(C)(=O)=O)[C@@H]1Cc1cccc(-c2ccccc2)c1F [Compound 336, (6S,7S)-6-((2-fluoro-[1,1′-biphenyl]-3-yl)methyl)-N-((S)-2-methoxypropyl)-7-(methylsulfonamido)-5-azaspiro[2.4]heptane-5-carboxamide]
EC50: 1 to 10 nM
Emax: 90 to 100%

COC(=O)N1CCC2(CC2)C(NS(C)(=O)=O)C1Cc1cccc(-c2ccccc2)c1 (racemic) [Compound 14, methyl 5-([1,1′-biphenyl]-3-ylmethyl)-4-(methylsulfonamido)-6-azaspiro[2.5]octane-6-carboxylate]
EC50: > 1000 nM
Emax: 90 to 100%

COC[C@H]1CCN1C(=O)N1CC2(CC2)[C@H](NS(C)(=O)=O)[C@@H]1Cc1cccc(-c2ccccc2)c1F [Compound 103, N-((6S,7S)-6-((2-fluoro-[1,1′-biphenyl]-3-yl)methyl)-5-((R)-2-(methoxymethyl)azetidine-1-carbonyl)-5-azaspiro[2.4]heptan-7-yl)methanesulfonamide]
EC50: 10 to 100 nM
Emax: 90 to 100%

C[C@@H](NC(=O)N1CC2(CC2)[C@H](NS(=O)(=O)CF)[C@@H]1Cc1cccc(-c2ccccc2)c1F)C(F)F [Compound 219, (6S,7S)-N-((R)-1,1-difluoropropan-2-yl)-6-((2-fluoro-[1,1′-biphenyl]-3-yl)methyl)-7-((fluoromethyl)sulfonamido)-5-azaspiro[2.4]heptane-5-carboxamide]
EC50: 1 to 10 nM
Emax: 90 to 100%

C[C@H](F)CNC(=O)N1CC2(CC2)[C@H](NS(=O)(=O)CF)[C@@H]1Cc1cccc(-c2ccccc2)c1F [Compound 205]
EC50: 1 to 10 nM
Emax: 90 to 100%

O=C([C@H]1CCO1)N1CC2(CC2)[C@H](NS(=O)(=O)CF)[C@@H]1Cc1cccc(-c2ccccc2)c1 [Compound 48, N-((6S,7S)-6-([1,1′-biphenyl]-3-ylmethyl)-5-((R)-oxetane-2-carbonyl)-5-azaspiro[2.4]heptan-7-yl)-1-fluoromethanesulfonamide]
Emax: 80 to 90%

CC(C)S(=O)(=O)N[C@@H]1[C@H](Cc2cccc(-c3cc(F)cc(F)c3)c2F)N(C(=O)[C@H]2CCO2)CC12CC2 [Compound 222, N-((6S,7S)-5-((R)-oxetane-2-carbonyl)-6-((2,3′,5′-trifluoro-[1,1′-biphenyl]-3-yl)methyl)-5-azaspiro[2.4]heptan-7-yl)propane-2-sulfonamide]
EC50: 0.0794 to 1 nM
Emax: 90 to 100%

O=C(NCC1(F)CC1)N1CC2(CC2)[C@H](NS(=O)(=O)C(F)F)[C@@H]1Cc1cccc(-c2ccccc2)c1F [Compound 166, (6S,7S)-7-((difluoromethyl)sulfonamido)-6-((2-fluoro-[1,1′-biphenyl]-3-yl)methyl)-N-((1-fluorocyclopropyl)methyl)-5-azaspiro[2.4]heptane-5-carboxamide]
EC50: 1 to 10 nM
Emax: 90 to 100%

CS(=O)(=O)NC1C(Cc2cccc(-c3ccccc3)c2)N(C(=O)C2CC(F)(F)C2)CC12CC2 (racemic) [Compound 12, N-(6-([1,1-biphenyl]-3-ylmethyl)-5-(3,3-difluorocyclobutane-1-carbonyl)-5-azaspiro[2.4]heptan-7-yl)methanesulfonamide]
EC50: 100 to 1000 nM
Emax: 80 to 90%

C[C@@H](F)C(=O)N1CC2(CC2)[C@H](NS(=O)(=O)CF)[C@@H]1Cc1cc(F)cc(-c2ccccc2)c1F [Compound 418]
EC50: 1 to 10 nM
Emax: 90 to 100%

CS(=O)(=O)N[C@@H]1[C@H](Cc2cccc(-c3cccc(F)c3)c2F)N(C(=O)[C@H]2CCO2)CC12CC2 [Compound 67, N-((6S,7S)-6-((2,3′-difluoro-[1,1′-biphenyl]-3-yl)methyl)-5-((R)-oxetane-2-carbonyl)-5-azaspiro[2.4]heptan-7-yl)methanesulfonamide]
EC50: 1 to 10 nM
Emax: 90 to 100%

O=C(NCCF)N1CC2(CC2)[C@H](NS(=O)(=O)CF)[C@@H]1Cc1cc(F)cc(-c2ccccc2)c1F [Compound 371, (6S,7S)-6-((2,5-difluoro-[1,1′-biphenyl]-3-yl)methyl)-N-(2-fluoroethyl)-7-((fluoromethyl)sulfonamido)-5-azaspiro[2.4]heptane-5-carboxamide]
EC50: 1 to 10 nM
Emax: 90 to 100%

N#C[C@]1(C(=O)N2CC3(CC3)[C@H](NS(=O)(=O)C(F)F)[C@@H]2Cc2cccc(-c3ccccc3)c2F)CCO1 [Compound 408, N-((6S,7S)-5-((S)-2-cyanooxetane-2-carbonyl)-6-((2-fluoro-[1,1′-biphenyl]-3-yl)methyl)-5-azaspiro[2.4]heptan-7-yl)-1,1-difluoromethanesulfonamide]
EC50: 1 to 10 nM
Emax: 90 to 100%

CS(=O)(=O)N[C@@H]1[C@H](Cc2cc(F)cc(-c3ccccc3F)c2F)N(C(=O)[C@H]2CCO2)CC12CC2 [Compound 350, N-((6S,7S)-5-((R)-oxetane-2-carbonyl)-6-((2,2′,5-trifluoro-[1,1′-biphenyl]-3-yl)methyl)-5-azaspiro[2.4]heptan-7-yl)methanesulfonamide]
EC50: 10 to 100 nM
Emax: 90 to 100%

CN(C)S(=O)(=O)N[C@@H]1[C@H](Cc2cc(F)cc(-c3ccccc3)c2F)N(C(=O)C2CCO2)CC12CC2 (stereo partly drawn) [Compound 347, N-((6S,7S)-6-((2,5-difluoro-[1,1′-biphenyl]-3-yl)methyl)-5-((R)-oxetane-2-carbonyl)-5-azaspiro[2.4]heptan-7-yl)-N,N-dimethylsulfuric diamide]
EC50: 1 to 10 nM
Emax: 90 to 100%

CCNC(=O)N1CC2(CC2)[C@H](NS(C)(=O)=O)[C@@H]1Cc1cccc(-c2ccccc2)c1 (racemic) [Compound 303, 6-([1,1′-biphenyl]-3-ylmethyl)-N-ethyl-7-(methylsulfonamido)-5-azaspiro[2.4]heptane-5-carboxamide]
EC50: 1 to 10 nM
Emax: 90 to 100%

N#CC1(CNC(=O)N2CC3(CC3)[C@H](NS(=O)(=O)CF)[C@@H]2Cc2cccc(-c3ccccc3)c2F)CC1 [Compound 186, (6S,7S)-N-((1-cyanocyclopropyl)methyl)-6-((2-fluoro-[1,1′-biphenyl]-3-yl)methyl)-7-((fluoromethyl)sulfonamido)-5-azaspiro[2.4]heptane-5-carboxamide]
EC50: 0.0794 to 1 nM
Emax: 90 to 100%

CC(C)S(=O)(=O)N[C@@H]1[C@H](Cc2cc(F)cc(-c3cc(F)cc(F)c3)c2F)N(C(=O)[C@H]2CCO2)CC12CC2 [Compound 395, N-((6S,7S)-5-((R)-oxetane-2-carbonyl)-6-((2,3′,5,5′-tetrafluoro-[1,1′-biphenyl]-3-yl)methyl)-5-azaspiro[2.4]heptan-7-yl)propane-2-sulfonamide]
EC50: 0.0794 to 1 nM
Emax: 90 to 100%

CS(=O)(=O)NC1C(Cc2cccc(-c3ccccc3)c2F)N(C(=O)[C@H]2C[C@H](F)C2)CC12CC2 (mixture of isomers) [Compound 90, N-(6-((2-fluoro-[1,1′-biphenyl]-3-yl)methyl)-5-((1r,3r)-3-fluorocyclobutane-1-carbonyl)-5-azaspiro[2.4]heptan-7-yl)methanesulfonamide]
EC50: 1 to 10 nM
Emax: 90 to 100%

CS(=O)(=O)N[C@@H]1[C@H](Cc2cccc(-c3ccccc3)c2F)N(C(=O)[C@@H]2CCO2)CC12CC2 [Compound 20, N-((6S,7S)-6-((2-fluoro-[1,1′-biphenyl]-3-yl)methyl)-5-((S)-oxetane-2-carbonyl)-5-azaspiro[2.4]heptan-7-yl)methanesulfonamide]
EC50: 10 to 100 nM
Emax: 90 to 100%

CC(C)C(=O)N1CC2(CC2)C(NS(=O)(=O)CF)C1Cc1cccc(-c2ccccc2)c1 (racemic) [Compound 36, N-(6-([1,1′-biphenyl]-3-ylmethyl)-5-isobutyryl-5-azaspiro[2.4]heptan-7-yl)-1-fluoromethanesulfonamide]
EC50: 1 to 10 nM
Emax: 90 to 100%

CC(C)(O)C(=O)N1CC2(CC2)[C@H](NS(C)(=O)=O)[C@@H]1Cc1cccc(-c2ccccc2F)c1F [Compound 361, N-((6S,7S)-6-((2,2'-difluoro-[1,1′-biphenyl]-3-yl)methyl)-5-(2-hydroxy-2-methylpropanoyl)-5-azaspiro[2.4]heptan-7-yl)methanesulfonamide]
EC50: 10 to 100 nM
Emax: 80 to 90%

COC[C@@H](O)C(=O)N1CC2(CC2)[C@H](NS(=O)(=O)CF)[C@@H]1Cc1cccc(-c2ccccc2)c1F [Compound 372, 1-fluoro-N-((6S,7S)-6-((2-fluoro-[1,1′-biphenyl]-3-yl)methyl)-5-((R)-2-hydroxy-3-methoxypropanoyl)-5-azaspiro[2.4]heptan-7-yl)methanesulfonamide]
EC50: 1 to 10 nM
Emax: 90 to 100%
